In patent US4994270A, “A54145 antibiotics and process for their production” (Eli Lilly and Company, priority 1988, dated 1991):
Converted amounts (≈) assume the structure as drawn. “And” between values parts separate entries of the source, which are not always exact repeats. Identical values can stand only once. Positions of bridges follow the written chain, without caps; N, C: chain ends. Non-standard residues stand in square brackets, D forms with d. Residues, ends and D or L forms follow the SMILES beside them. ξ: configuration not given here. *: point of attachment. ξAsp(3ξ-OMe) = COC(C(=O)O)C(N)C(=O)O; ξAsn(3ξ-OH) = NC(=O)C(O)C(N)C(=O)O; X2 = CC(C)CCCCCCC(=O)*; Sar = CNCC(=O)O

What was measured:
[1] = test system: Streptococcus pneumoniae Park1; test: MIC, conventional agar-dilution assay; assay type: cell-based
Description: (§1) The A54145 antibiotics inhibit the growth of pathogenic bacteria. […] The MIC's in Table IX were determined by conventional agar-dilution assays.

[2] = test system: Staphylococcus epidermidis 222; test: MIC, conventional agar-dilution assay; assay type: cell-based
Description: as §1

[3] = test system: Staphylococcus aureus X1.1; test: MIC, conventional agar-dilution assay; assay type: cell-based
Description: as §1

[4] = test system: Staphylococcus aureus X400; test: MIC, conventional agar-dilution assay; assay type: cell-based
Description: as §1

[5] = test system: Streptococcus sp. group 2041; test: MIC, conventional agar-dilution assay; assay type: cell-based
Description: as §1

[6] = test system: Staphylococcus aureus S13E; test: MIC, conventional agar-dilution assay; assay type: cell-based
Description: as §1

[7] = test system: Streptococcus sp. group D X66; test: MIC, conventional agar-dilution assay; assay type: cell-based
Description: as §1

[8] = test system: Staphylococcus epidermidis EPI1; test: MIC, conventional agar-dilution assay; assay type: cell-based
Description: as §1

[9] = test system: Streptococcus pyogenes C203; test: MIC, conventional agar-dilution assay; assay type: cell-based
Description: as §1

[10] = test system: Staphylococcus aureus V41; test: MIC, conventional agar-dilution assay; assay type: cell-based
Description: as §1

[11] = Growth performance of starter pigs; assay type: in vivo
Text: In this test, a total of 145 barrows and gilts, averaging 22 pounds starting weight, were used to determine the effect of various dosages of A54145 on the growth performance of starter pigs. The pigs were fed an 18% crude protein corn-soy diet and were housed in a completely enclosed building with wire mesh floors elevated over a flush floor. The effect of the treatments on performance was studied for a 28-day trial period.

Streptococcus pyogenes = test: ED50 in experimentally infected mice; assay type: in vivo; conditions: mice infected with Streptococcus pyogenes, subcutaneous
Description: (§2) The A54145 antibiotics have shown in vivo antimicrobial activity against experimentally-induced infections in laboratory animals. When two doses of test compound were administered to mice experimentally infected with Streptococcus pyogenes or Staphylococcus aureus, the activity observed was measured as an ED50 value [effective dose in mg/kg to protect 50% of the test animals: see Warren Wick, et al. J. Bacteriol. 81 233-235 (1961)].

Staphylococcus aureus = test: ED50 in experimentally infected mice; assay type: in vivo; conditions: mice infected with Staphylococcus aureus; subcutaneous; doses given 1 and 4 hours postinfection
Description: as §2

[12] = test system: Staphylococcus aureus 209P; test: Stimulation of in vitro activity by calcium ions; assay type: cell-based; parameters: dose or concentration left out as unconfirmed
Description: (§3) The in vitro activity of the A54145 antibiotics is stimulated by the presence of calcium ions. For example, the in vitro activity of A54145A against Staphylococcus aureus 209P and Streptococcus faecalis ATCC 29212 was stimulated about 100 times by the presence of Ca^++ ([…]).

[13] = test system: Streptococcus faecalis ATCC 29212; test: Stimulation of in vitro activity by calcium ions; assay type: cell-based; parameters: dose or concentration left out as unconfirmed
Description: as §3

[14] = Chick growth performance test (weight gain, feed efficiency); assay type: in vivo, chicks
Text: In the tests, the compounds were given to chicks at the concentrations indicated in the feed. The test period was the 7-day period from 7-14 days of age of the birds. Growth performance (weight gain, feed consumption and feed efficiency) was compared to that of contemporary controls.

[15] = Table XII, 20 g/ton, relative to the control mean

In the case of `CCC(C)C1NC(=O)C(CCC(=O)O)NC(=O)C(CC(N)=O)NC(=O)CNC(=O)C(C(OC)C(=O)O)NC(=O)C(CCCCN)NC(=O)C(CC(=O)O)NC(=O)C(C)NC(=O)CN(C)C(=O)C(NC(=O)C(NC(=O)C(CCC(=O)O)NC(=O)C(Cc2c[nH]c3ccccc23)NC(=O)CCCCCCC(C)C)C(O)C(N)=O)C(C)OC1=O` (stereo not drawn) [Component A54145A] (X2-WE[ξAsn(3ξ-OH)]T[Sar]ADK[ξAsp(3ξ-OMe)]GNEI; ester 4-C; configuration not given here), the MIC [1] is reported as 8 µg/mL (≈ 4.86 µM), the MIC [2] is reported as 4 µg/mL (≈ 2.43 µM) and the MIC [3] is reported as 8 µg/mL (≈ 4.86 µM). The MIC [4] was 8 µg/mL (≈ 4.86 µM), the MIC [5] was 64 µg/mL (≈ 38.9 µM) and the MIC [6] was 8 µg/mL (≈ 4.86 µM). It also gave an MIC [7] of 16 µg/mL (≈ 9.73 µM), an MIC [8] of 4 µg/mL (≈ 2.43 µM) and an MIC [9] of 2 µg/mL (≈ 1.22 µM). For the same molecule, the MIC [10] was 8 µg/mL (≈ 4.86 µM), the “feed/gain ratio in pigs (in words)” value [11] was “improved the feed/gain ratio” and the “ED50 Value” (Streptococcus pyogenes; doses given 1 and 4 hours postinfection) was 2.4 mg/kg × 2. For the same molecule, the “ED50 Value, individual values of two tests” value (Streptococcus pyogenes; individual tests behind the average) was 1.6 mg/kg × 2 and 3.1 mg/kg × 2, the “ED50 Value” (Staphylococcus aureus) was 3.3 mg/kg × 2 and the “stimulation of in vitro activity by Ca++” value [12] was “about 100 times”. For the same molecule, the “stimulation of in vitro activity by Ca++” value [13] was “about 100 times”, the “Feed/Gain Ratio” value ([14]; Table XII, 20 g/ton) was 1.546 and the “Weight Gain Amt.” value ([14]; Table XII, 20 g/ton in feed, chicks 7-14 days of age) was 168 g. The “Feed/Gain % Impr.” value [14, 15] was 11.0%, the “Weight Gain % Impr.” value [14, 15] was 26.3% and the “weight gains in chickens (in words)” value ([14]; chickens) was “increased weight gains”.
